Reference: patent US7176183B2, “Methods for treating and preventing damage to mucosal tissue” (University of Southern California, priority 1999, dated 2007)
Values joined by “and” are separate entries in the source; they are usually repeats but may differ in a detail not shown here. Equal entries are not always repeated. “Also recorded” adds a separate entry of the source.

Legend:
[1] = test system: patients with newly diagnosed breast cancer receiving doxorubicin and cyclophosphamide; experiment: Phase I/II dose escalation study of AII(1–7) in chemotherapy patients: incidence of stomatitis (oral mucositis); type: in vivo; conditions: for Stomatitis (incidents of stomatitis associated with chemotherapy): chemotherapy patients (doxorubicin/cyclophosphamide), subcutaneous treatment, AII(1-7) n = 14, filgrastim n = 5
Protocol: The Phase I/II study was a prospective, open-label, dose-escalation study comparing the effects of AII(1–7 (SEQ ID NO:4)) in patients with newly diagnosed breast cancer receiving doxorubicin 60 mg/m^2 and cyclophosphamide 600 mg/m^2 for at least 3 cycles of adjuvant chemotherapy following surgical tumor reduction. A filgrastim comparator arm was used to compare safety and response variables and to assess synergy of AII(1–7) with filgrastim (NEUPOGEN®, Amgen, Inc., Thousand Oaks, Calif.).
Patients who satisfied the inclusion/exclusion criteria received a once daily subcutaneous injection of the given AII(1–7) dose level for 7 days followed by a 1 week rest period prior to any chemotherapy (cycle 0) in the interval between tumor reduction and planned chemotherapy. Dose escalation within an individual patient was not permitted.
Following the rest period, a chemotherapy regimen containing doxorubicin 60 mg/m^2 and cyclophosphamide 600 mg/m^2 was initiated. AII(1–7) was administered for at least 10 days, or until the absolute neutrophil count (ANC)>1500/μL for 2 days, beginning two days after chemotherapy. Up to three chemotherapy cycles followed by AII(1–7) administration will be repeated every 21 days or as indicated by patient tolerance. Any patient that fails to achieve an ANC>1500/μL by day 15 (13 days of AII(1–7)) received a filgrastim rescue of 5.0 μg/kg/day until the ANC>1500/μL for 2 days.
During the conduct of the AII (1–7) clinical trial to examine the effect of subcutaneous injection of AII(1–7) on hematological recovery in new breast cancer patients receiving chemotherapy (doxorubicin/cyclophosphamide), adverse events that occurred were collected.
An adverse event (AE) was considered any unfavorable or unintended change in structure, function, signs, or symptoms temporally associated with the use of a medicinal product experienced by a person administered a pharmaceutical product, whether or not a causal relationship with the product has been established. During the conduct of this clinical trial, study personnel asked open-ended questions to obtain information about AEs at every visit. Signs and symptoms were graded by the Investigator using the WHO toxicity criteria. […] If there was stomatitis, it was graded on a four point scale as: […]

Female C57B1/6 mice = experiment: Gastrointestinal mucositis induced by cyclophosphamide injection into mice, histological scoring; type: in vivo; parameters: key to Overall score: 0: No lesion; <10% Crypts distorted; 2: >10% Crypts distorted, no necrotic cells; 3: >10% Crypts distorted, occasional necrotic cell; 4: Same as 3 except more extensive; key to Epithelium score / Crypt Architecture score: 0: Normal; <10% Crypt distortion; 2: 10–50% Crypt distortion; 3: >50% Crypt distortion; conditions: for Epithelium score / Crypt Architecture score / Overall score: AII(1–7) 100 μg/kg s.c., one line per animal
Protocol: Female C57B1/6 mice were given an intraperitoneal injection of cyclophosphamide at concentrations of 200 or 250 mg/kg. After 2 days, the mice began treatment with either AII(1–7) (100 μg/kg), or phosphate buffered saline, both of which were given subcutaneously. The baseline weight of the mice was determined, and the mice were observed daily for 7–14 days, after which the animals were necropsied. Samples from the intestines were taken at four levels, in that the intestine was cut transversely at four places along the intestinal tract, from which histological preparations were made and evaluated, in order to reduce bias due to site selection. The samples were fixed in formalin for histological evaluation of crypt distortion and architecture, as well as epithelial attenuation. The crypt is a part of the gastrointestinal tract where the mucosal glands reside. Crypt distortion is a measure of the amount of disruption to the tissue that occurs as a result of mucosal damage. The epithelium is the cell/mucosal lining to the gastrointestinal tract. Epithelial attenuation is a measure of the amount of destruction to the epithelial lining.
Histological scoring was performed in a blinded fashion. The scores on the accompanying table were given on the following scale: […]

[2] = Effectiveness test of AII fragments (test not specified)
[3] = cyclophosphamide 200 mg/kg i.p., listed as A(1-7)
[4] = cyclophosphamide 250 mg/kg i.p., listed as A(1-7)

For Asp-Arg-Val-Tyr-Ile-His-Pro [AII(1–7)], the “Reduction of the frequency of stomatitis relative to that observed with filgrastim treatment” value ([1]; chemotherapy patients) was 30%, the “Stomatitis (incidents of stomatitis associated with chemotherapy)” value [1] was 40% and the “Effect on stomatitis (oral mucositis) relative to control” value ([1]; subcutaneous administration, chemotherapy patients) was “reduced; also recorded: significantly decreased”. For the same molecule, the Epithelium score (Female C57B1/6 mice; cyclophosphamide 200 mg/kg i.p.) was 1 (Mild Attenuation (<10%)), the “Crypt Architecture score” value (Female C57B1/6 mice; [3]) was 0 and 1 (<10% Crypt distortion) (2×) and the Overall score (Female C57B1/6 mice; [3]) was 0 and 1 (<10% Crypts distorted) (2×). For the same molecule, the “Crypt Architecture score” value (Female C57B1/6 mice; [4]) was 1 (<10% Crypt distortion) (2×) and 2 (10–50% Crypt distortion), the Epithelium score (Female C57B1/6 mice; [4]) was 0 and 1 (Mild Attenuation (<10%)) (2×) and the Overall score (Female C57B1/6 mice; [4]) was 0 and 1 (<10% Crypts distorted) and 2 (>10% Crypts distorted, no necrotic cells). For the same molecule, the “Level of gastrointestinal mucositis by all histological scores” value (Female C57B1/6 mice; versus saline) was “reduced”.

In the case of His-Pro-Phe (HPF) [AII(6–8)], the Effectiveness [2] is reported as “not to be effective”.

In the case of Tyr-Ile-His-Pro-Phe (YIHPF) [AII(4–8)], the Effectiveness [2] is reported as “not to be effective; also recorded: ineffective”.

B1: filgrastim (protein, chains of the INN, looked up)
chain: MTPLGPASSLPQSFLLKCLEQVRKIQGDGAALQEKLCATYKLCHPEELVLLGHSLGIPWAPLSSCPSQALQLAGCLSQLHSGLFLYQGLLQALEGISPELGPTLDTLQLDVADFATTIWQQMEELGMAPALQPTQGAMPAFASAFQRRAGGVLVASHLQSFLEVSYRVLRHLAQP
notes: filgrastim (NEUPOGEN®, Amgen, Inc.), comparator arm
With B1 the “Stomatitis (incidents of stomatitis associated with chemotherapy)” value [1] was 60%.
